Results as given in ChEMBL document CHEMBL1201862, “PubChem BioAssay data set” (2004).
The source made the active and inactive calls.

Experiments:
[1] = biological target: T1, Adenosylmethionine-8-amino-7-oxononanoate aminotransferase (Mycobacterium tuberculosis, UniProt P9WQ81); assay: Mycobacterium tuberculosis BioA enzyme inhibitor Measured in Biochemical System Using Plate Reader - 2163-02_Inhibitor_Dose_CherryPick_Activity.; format: functional, Mycobacterium tuberculosis UT205
T1 sequence (P9WQ81 whole entry): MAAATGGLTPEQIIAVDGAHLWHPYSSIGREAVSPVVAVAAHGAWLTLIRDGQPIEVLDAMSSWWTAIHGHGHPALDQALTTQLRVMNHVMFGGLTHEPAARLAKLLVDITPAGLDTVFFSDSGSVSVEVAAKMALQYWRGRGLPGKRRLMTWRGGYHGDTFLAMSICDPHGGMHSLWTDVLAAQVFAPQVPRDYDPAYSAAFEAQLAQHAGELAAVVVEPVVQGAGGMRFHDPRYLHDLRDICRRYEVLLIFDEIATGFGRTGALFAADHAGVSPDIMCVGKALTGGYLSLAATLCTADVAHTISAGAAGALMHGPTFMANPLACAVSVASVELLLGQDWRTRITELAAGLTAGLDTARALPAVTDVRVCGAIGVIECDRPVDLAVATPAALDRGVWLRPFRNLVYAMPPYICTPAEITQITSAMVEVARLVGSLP

[2] = viability of uninfected HEp-2 cells – cell-based, HTS, cytotoxicity control for RSV inhibitor project, dose response (AID 2410); format: functional; details: human respiratory syncytial virus
[3] = biological target: Heat shock protein HSP 90-alpha (Homo sapiens, UniProt P07900); format: functional, organism-based
[4] = biological target: T2, Corticotropin-releasing factor receptor 2/Corticotropin-releasing factor-binding protein (Homo sapiens, UniProt P24387+Q13324); assay: Dose Response confirmation of uHTS hits for small molecule antagonists of the CRF-binding protein and CRF-R2 receptor complex.; format: functional; details: read-out: IC50_Mean
T2 sequence (Q13324 whole entry): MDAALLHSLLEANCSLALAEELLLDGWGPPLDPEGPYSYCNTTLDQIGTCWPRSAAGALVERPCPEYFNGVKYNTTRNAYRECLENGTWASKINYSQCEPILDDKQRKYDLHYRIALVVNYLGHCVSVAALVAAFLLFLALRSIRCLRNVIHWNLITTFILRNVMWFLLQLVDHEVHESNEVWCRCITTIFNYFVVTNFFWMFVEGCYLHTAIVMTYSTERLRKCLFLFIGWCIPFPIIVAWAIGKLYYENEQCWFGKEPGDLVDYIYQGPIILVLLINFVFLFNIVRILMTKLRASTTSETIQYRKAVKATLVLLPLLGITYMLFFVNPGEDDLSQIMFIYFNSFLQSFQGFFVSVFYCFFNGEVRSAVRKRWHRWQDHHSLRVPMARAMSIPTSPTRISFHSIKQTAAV
T2 sequence (P24387 whole entry): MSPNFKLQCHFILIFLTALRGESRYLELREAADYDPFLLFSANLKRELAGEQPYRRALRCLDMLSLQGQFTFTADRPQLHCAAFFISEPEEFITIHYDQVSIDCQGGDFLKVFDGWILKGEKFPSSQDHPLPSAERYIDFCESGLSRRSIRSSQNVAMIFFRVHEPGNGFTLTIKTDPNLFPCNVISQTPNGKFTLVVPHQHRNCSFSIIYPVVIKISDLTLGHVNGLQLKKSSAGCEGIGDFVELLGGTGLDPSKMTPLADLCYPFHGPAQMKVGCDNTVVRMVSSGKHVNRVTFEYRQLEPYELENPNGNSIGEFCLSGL

[5] = biological target: T2, Corticotropin-releasing factor receptor 2/Corticotropin-releasing factor-binding protein; assay: activators of CRF receptor 2 with binding protein – uHTS hits, confirmation (AID 602473); format: functional; details: read-out: EC50_Mean
[6] = blockers of CRF-binding protein–CRF-R2 complex – cell-based, uHTS hits, 384-well, dose response (AID 651639); format: functional, Homo sapiens; details: read-out: IC50_Mean
[7] = luciferase reporter signal suppression in cells – H4 neuroglioma cells, luminescence, dose response (AID 1990); format: functional, cell-based
[8] = Luminescence Cell-Based Dose Response HTS to Identify Inhibitors of 5'UTR Stem-Loop Driven Prion Protein mRNA Translation in H4 Neuroglioblastoma Cells. [Related pubchem assays: 1827 (Project Summary), 1813 (Primary HTS)]; format: functional
[9] = biological target: T3, Heat shock factor protein 1 (Mus musculus, UniProt P38532); assay: decrease of HSF1-responsive luciferase luminescence – cell-based, NIH3T3, dose retest, confirmation (AID 2382); format: functional;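 note: NIH3T3 fibroblasts with HSF1-driven luciferase reporter stressed by proteasome inhibitor MG132; luminescence from HSF1-driven luciferase expression after 8 hours of MG132 stress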
T3 sequence (P38532 whole entry): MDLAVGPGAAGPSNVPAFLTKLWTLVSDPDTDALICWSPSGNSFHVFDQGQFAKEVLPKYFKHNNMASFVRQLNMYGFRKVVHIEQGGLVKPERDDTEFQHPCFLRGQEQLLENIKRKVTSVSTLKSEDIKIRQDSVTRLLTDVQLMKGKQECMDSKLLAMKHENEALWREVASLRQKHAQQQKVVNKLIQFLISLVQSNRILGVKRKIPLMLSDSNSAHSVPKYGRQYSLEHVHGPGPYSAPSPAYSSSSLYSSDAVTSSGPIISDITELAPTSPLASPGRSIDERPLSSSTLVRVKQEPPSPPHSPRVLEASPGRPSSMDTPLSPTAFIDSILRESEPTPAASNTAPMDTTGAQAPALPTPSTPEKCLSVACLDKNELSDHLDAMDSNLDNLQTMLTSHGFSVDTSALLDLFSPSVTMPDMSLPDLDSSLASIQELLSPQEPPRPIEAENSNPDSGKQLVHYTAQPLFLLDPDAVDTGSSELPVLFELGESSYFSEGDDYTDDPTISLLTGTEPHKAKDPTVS

[10] = alpha-synuclein stem-loop luciferase translation blockers – H4 neuroglioma cells, luminescence, confirmation (AID 1988); format: functional, cell-based
HEK293 = assay: EBV LMP1 TES2 canonical NF-kB signalling blockers – cell-based, HEK293, luciferase, cherry-pick, dose response (AID 588343); format: functional; details: Homo sapiens
cells = format: functional, cell-based
Caspase-3 = biological target: T4, Caspase-3 (Homo sapiens, UniProt P42574); format: functional;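 note: Dose-response selectivity test against caspase-3 for candidate inhibitors of sentrin-specific proteases (SENPs)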
T4 sequence (P42574 whole entry): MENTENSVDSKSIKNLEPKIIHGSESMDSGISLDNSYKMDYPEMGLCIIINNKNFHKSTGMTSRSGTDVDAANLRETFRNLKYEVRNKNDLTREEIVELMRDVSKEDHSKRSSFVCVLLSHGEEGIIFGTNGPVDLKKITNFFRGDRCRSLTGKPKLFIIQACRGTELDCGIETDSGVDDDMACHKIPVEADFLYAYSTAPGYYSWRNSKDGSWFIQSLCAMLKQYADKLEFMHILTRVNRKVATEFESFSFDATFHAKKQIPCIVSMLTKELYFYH

[11] = biological target: T5, Sentrin-specific protease 7 (Homo sapiens, UniProt Q9BQF6); format: functional;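 note: Luminescence-based dose-response confirmation of ultra-high-throughput screening hits, measuring inhibition of SENP7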
T5 sequence (Q9BQF6 whole entry): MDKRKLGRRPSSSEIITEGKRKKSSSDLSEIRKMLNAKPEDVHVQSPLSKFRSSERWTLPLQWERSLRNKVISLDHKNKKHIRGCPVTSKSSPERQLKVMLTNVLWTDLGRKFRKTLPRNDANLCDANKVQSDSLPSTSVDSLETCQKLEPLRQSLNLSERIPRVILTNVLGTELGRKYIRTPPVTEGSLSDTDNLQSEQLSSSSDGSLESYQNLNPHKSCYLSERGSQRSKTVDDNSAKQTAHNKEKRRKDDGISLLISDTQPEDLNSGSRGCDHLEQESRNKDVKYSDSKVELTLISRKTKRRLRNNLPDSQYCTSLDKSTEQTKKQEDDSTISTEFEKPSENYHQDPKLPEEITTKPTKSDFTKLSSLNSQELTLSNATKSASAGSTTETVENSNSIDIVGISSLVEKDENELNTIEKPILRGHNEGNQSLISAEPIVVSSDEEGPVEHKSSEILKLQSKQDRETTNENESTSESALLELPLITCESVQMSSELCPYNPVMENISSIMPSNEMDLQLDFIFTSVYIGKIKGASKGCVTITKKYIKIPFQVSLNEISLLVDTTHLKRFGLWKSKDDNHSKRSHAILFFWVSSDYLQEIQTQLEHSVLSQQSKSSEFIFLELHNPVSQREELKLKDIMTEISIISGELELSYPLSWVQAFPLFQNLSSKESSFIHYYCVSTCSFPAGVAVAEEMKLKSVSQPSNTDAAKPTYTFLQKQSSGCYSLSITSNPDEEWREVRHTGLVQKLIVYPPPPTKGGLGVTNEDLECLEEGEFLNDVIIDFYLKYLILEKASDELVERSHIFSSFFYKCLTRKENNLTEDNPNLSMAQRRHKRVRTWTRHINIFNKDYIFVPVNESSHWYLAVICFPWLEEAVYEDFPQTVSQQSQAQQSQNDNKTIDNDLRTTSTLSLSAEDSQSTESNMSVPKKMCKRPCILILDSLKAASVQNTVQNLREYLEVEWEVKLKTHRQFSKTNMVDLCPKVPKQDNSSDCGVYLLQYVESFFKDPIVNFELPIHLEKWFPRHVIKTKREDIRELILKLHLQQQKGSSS

[12] = biological target: T6, Sentrin-specific protease 6 (Homo sapiens, UniProt Q9GZR1); format: functional;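 note: Luminescence-based dose-response confirmatory assay of SENP6 inhibition, following up an ultra-high-throughput screen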
T6 sequence (Q9GZR1 whole entry): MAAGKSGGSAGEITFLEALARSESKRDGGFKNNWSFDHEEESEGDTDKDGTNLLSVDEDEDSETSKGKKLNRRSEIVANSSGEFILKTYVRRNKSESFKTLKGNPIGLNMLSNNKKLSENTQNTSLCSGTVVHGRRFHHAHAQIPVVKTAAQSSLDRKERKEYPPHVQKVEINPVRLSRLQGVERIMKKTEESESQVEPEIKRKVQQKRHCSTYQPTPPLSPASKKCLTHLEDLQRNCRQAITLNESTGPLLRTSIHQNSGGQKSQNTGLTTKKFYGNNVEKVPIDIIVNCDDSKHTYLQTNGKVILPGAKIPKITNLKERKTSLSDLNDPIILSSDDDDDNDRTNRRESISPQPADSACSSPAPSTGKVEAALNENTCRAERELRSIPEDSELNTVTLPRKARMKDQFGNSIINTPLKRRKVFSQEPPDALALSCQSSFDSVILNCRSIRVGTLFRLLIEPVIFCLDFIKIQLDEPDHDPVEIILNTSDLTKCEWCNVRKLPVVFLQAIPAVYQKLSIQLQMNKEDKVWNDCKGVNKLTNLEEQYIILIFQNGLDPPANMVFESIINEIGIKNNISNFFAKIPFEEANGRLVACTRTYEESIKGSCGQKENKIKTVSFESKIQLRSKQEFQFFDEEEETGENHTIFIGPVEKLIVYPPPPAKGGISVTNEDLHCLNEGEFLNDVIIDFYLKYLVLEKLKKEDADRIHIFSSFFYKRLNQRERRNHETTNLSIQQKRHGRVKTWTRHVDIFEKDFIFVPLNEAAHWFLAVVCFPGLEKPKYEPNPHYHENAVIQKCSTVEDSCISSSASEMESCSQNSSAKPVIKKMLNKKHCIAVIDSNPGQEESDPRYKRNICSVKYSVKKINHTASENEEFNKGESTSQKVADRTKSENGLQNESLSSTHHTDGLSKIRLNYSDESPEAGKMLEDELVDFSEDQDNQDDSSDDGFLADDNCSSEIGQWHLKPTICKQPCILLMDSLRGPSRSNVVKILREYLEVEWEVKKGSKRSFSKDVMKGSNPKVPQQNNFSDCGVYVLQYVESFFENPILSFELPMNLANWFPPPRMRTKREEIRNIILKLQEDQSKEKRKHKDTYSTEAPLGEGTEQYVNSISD

[13] = biological target: T7, Sentrin-specific protease 8 (Homo sapiens, UniProt Q96LD8); format: functional;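 note: luminescence read-out of SENP8 inhibition, dose-response confirmation following an ultra-high-throughput screen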
T7 sequence (Q96LD8 whole entry): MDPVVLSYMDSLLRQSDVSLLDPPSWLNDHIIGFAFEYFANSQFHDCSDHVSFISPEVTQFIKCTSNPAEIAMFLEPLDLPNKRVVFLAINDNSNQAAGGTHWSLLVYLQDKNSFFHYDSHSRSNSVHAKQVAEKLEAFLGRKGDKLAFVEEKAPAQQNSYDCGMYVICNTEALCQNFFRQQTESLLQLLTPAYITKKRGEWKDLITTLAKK

Compound: Cn1ncc2cc3c(Nc4ccc(Cl)cc4)cccc3nc21
- AC50 [1]: 5.67 µM (active)

Compound: CCS(=O)(=O)Nc1cccc(-c2cc(-c3ccccc3)c3cc(C)ccc3n2)c1
- CC50 [2]: 12 µM (active)
- AC50 [3]: 4.3 µM (active)

Compound: Cc1nn(-c2ccccc2)c(N)c1Sc1ccc([N+](=O)[O-])cc1
- IC50 [4]: < 0.368 µM (active)
- EC50 [5]: > 53 µM (inactive)
- IC50 [6]: 12.8 µM (active)

Compound: CCC(CO)Oc1cc(NC(=O)c2cccc(F)c2)c2ncn(C(C)C)c2c1 (stereo unspecified)
- AC50 [1]: 5 µM (active)

Compound: CC1CCc2nc(N)c(C#N)c(-c3cccnc3)c2C1 (stereo unspecified)
- EC50 [7]: 21.9 µM (active)
- EC50 [8]: 7.72 µM (active)
- EC50 [9]: 1.83 µM (active)
- EC50 [10]: > 120 µM (not active)
- AC50 (HEK293): 9.95 µM (active)

Compound: COc1ccc(NC(=O)CN(C)C(=O)C2=COCCO2)cc1
- IC50 [4]: < 0.368 µM (active)
- EC50 [5]: > 53 µM (inactive)
- IC50 [6]: > 20 µM (inactive)

Compound: O=C(N[C@H]1CC[C@@H](CCn2cc(-c3cccnc3)nn2)O[C@@H]1CO)c1ccccc1F
- AC50 [1]: 11.7 µM (active)

Compound: O=C(Nc1ncc2c(n1)CC(c1ccco1)CC2=O)c1ccccc1 (stereo unspecified)
- EC50 (cells): > 350 µM (not active)
- AC50 [1]: 0.657 µM (active)

Compound: CCOC(=O)c1sc(NC(=O)c2ccc(C)s2)cc1C
- IC50 (Caspase-3): 20.3 µM (active)
- IC50 [11]: 4.46 µM (active)
- IC50 [12]: > 100 µM (inactive)
- IC50 [13]: > 100 µM (inactive)

Compound: CC1=NN(C(N)=S)C(=O)C1N=Nc1ccccc1 (stereo unspecified)
- IC50 (Caspase-3): 3.7 µM (active)
- IC50 [11]: 5.13 µM (active)
- IC50 [12]: 21.6 µM (active)
- IC50 [13]: > 100 µM (inactive)

Compound: COC(=O)C1CCN(C2CC(=O)N(c3cc(C)cc(C)c3)C2=O)CC1 (stereo unspecified)
- AC50 [3]: 7.09 µM (active)

Compound: CC(NC(=O)CC(c1ccccc1)c1cc(Cl)ccc1O)c1ccccc1 (stereo unspecified)
- IC50 [4]: 13.1 µM (active)
- EC50 [5]: > 53 µM (inactive)
- IC50 [6]: > 20 µM (inactive)

Compound: O=C(O)CC/C(=N/Nc1ccc([N+](=O)[O-])cc1)C(=O)O
- AC50 [3]: 4.79 µM (active)
